Reference: patent publication US5166146A, “Amino acid cyclopentanophenonthrene compounds” (Roussel Uclaf, priority 1989, dated 1992)
Counter-ions that a name gives are not always drawn.

How the values were obtained:
[1] = target: T1, Progesterone receptor of rabbit's uterus (Oryctolagus cuniculus, UniProt P06186); test: Relative bond affinity, progesterone receptor of rabbit's uterus (tritiated R 5020 displacement); format: binding; conditions: progesterone = 100
T1 construct: The uteruses were removed, weighed and homogenised at 0° C; from tissue; host or cells: uterus cytosol (105,000 g supernatant) of estradiol-primed impuberal female rabbits
T1 sequence (P06186 1-930): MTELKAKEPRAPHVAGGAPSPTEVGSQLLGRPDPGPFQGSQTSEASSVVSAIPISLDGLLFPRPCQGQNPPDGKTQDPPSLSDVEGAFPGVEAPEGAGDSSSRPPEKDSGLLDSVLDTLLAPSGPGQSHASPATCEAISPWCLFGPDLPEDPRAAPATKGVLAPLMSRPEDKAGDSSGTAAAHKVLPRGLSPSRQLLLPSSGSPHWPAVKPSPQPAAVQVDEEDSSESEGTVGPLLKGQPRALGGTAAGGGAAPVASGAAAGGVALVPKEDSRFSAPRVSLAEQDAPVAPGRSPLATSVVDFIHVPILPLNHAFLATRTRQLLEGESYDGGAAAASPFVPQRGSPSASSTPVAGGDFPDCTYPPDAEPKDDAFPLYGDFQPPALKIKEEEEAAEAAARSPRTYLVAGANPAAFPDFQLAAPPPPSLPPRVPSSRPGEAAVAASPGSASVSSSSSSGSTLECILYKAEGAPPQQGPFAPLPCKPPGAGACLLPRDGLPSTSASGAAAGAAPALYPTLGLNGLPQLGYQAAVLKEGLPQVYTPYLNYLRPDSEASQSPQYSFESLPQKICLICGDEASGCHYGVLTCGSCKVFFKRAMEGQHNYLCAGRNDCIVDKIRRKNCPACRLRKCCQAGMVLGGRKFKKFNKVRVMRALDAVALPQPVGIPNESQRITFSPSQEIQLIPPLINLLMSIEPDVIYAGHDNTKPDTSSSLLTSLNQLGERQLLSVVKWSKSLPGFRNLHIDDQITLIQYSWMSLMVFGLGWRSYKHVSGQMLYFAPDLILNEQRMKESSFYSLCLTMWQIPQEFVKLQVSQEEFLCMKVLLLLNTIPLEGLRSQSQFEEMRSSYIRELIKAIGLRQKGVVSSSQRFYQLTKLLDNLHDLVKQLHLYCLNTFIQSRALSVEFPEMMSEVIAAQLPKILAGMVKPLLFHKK
Procedure: Impuberal female rabbits weighing about 1 kg received a cutaneous application of 25 μg of estradiol and five days after this treatment, the animals were killed. The uteruses were removed, weighed and homogenised at 0° C. using a Potter teflon-flask ina (TS) 10 mM Tris, 0.25M saccharose, HCl pH 7.4 buffer (1 g of tissue per 50 ml of TS). The homogenate was ultra-centrifuged at 105,000 g×90 mn at 0° C. and aliquots of the supernatant or "cytosol", were incubated at 0° C. for 2 hours and 24 hours with a constant concentration (T=5 nm) of tritiated R 5020 (17,21-dimethyl-19-nor-Δ^4,9 -pregnadien-3, 20-dione, strongly progrestomimetic mimetic having a great affinity for the progesterone receptor), in the presence of increasing concentrations (0-2500 nM) of cold progesterone, or of the product under test. The concentration of bonded tritiated R 5020 (B) was measured in each incubate by the technique of adsorption with carbon-dextran. […]
(§1) The straight line of the equation: [formula] was determined. […]
(§2) The intersections of the straight line I50 and the curves allow the evaluation of the concentrations of the cold reference hormone (CH) and of the cold product under test (CX) which inhibit by 50% the bonding of the tritiated hormone on the receptor. The relative bond affinity (RBA) of the product under test was determined by the equation RBA=100 (CH)/(CX)

[2] = target: T2, Glucocorticoid receptor of rat's thymus (Rattus norvegicus, UniProt P06536); test: Relative bond affinity, glucocorticoid receptor of rat's thymus (tritiated dexamethasone displacement); format: binding; conditions: dexamethasone = 100
T2 construct: The thymuses were removed and homogenized at 0° C; from tissue; host or cells: thymus cytosol (105,000 g supernatant) of adrenalectomized male rats
T2 sequence (P06536 1-795): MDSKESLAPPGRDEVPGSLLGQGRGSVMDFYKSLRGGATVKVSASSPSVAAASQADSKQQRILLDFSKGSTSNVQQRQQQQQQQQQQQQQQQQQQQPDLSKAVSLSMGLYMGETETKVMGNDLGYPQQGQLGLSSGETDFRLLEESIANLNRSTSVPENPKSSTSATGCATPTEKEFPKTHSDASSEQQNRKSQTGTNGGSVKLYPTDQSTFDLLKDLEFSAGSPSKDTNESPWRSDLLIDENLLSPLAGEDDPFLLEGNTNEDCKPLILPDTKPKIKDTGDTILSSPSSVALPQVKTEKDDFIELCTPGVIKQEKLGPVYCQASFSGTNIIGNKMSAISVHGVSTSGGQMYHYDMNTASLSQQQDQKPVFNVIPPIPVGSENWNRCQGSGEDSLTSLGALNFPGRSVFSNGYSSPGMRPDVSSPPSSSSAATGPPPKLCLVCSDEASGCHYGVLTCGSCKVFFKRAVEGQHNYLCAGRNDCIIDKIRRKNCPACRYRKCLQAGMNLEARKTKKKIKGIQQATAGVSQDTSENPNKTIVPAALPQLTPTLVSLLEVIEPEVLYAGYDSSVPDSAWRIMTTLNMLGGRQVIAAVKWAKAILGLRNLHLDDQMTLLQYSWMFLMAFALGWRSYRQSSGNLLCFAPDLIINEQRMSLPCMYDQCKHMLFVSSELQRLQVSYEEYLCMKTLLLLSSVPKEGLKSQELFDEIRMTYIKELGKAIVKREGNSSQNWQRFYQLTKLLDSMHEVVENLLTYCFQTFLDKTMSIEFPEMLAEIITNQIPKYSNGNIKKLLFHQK
Procedure: Male rats weighing 160 to 200 g were suprarenalectomized and 4 to 8 days after this removal, the animals were killed. The thymuses were removed and homogenized at 0° C. using a Potter teflon-flask in a (TSD) 10 mM Tris, 0.25M saccharose, 2mM dithiothreitol, HCl, pH 7.4 buffer (1 g of tissue per 10 ml of TSD). The homogenate was ultracentrifuged at 105,000 g×90 mn at 0° C. and aliquots of the supernatant or "cystosol" were incubated at 0° C. for 4 hours and 24 hours with constant concentration (T=2.5 nM) of tritiated dexamethasone in the presence of increasing concentrations (0-2,500 nM) of cold dexamethasone or of the cold product under test. The concentration of the bonded tritiated dexamethasone (B) was then measured in each incubate by the technique of adsorption with carbon-dextran.
(§3) The calculation of the relative bond affinity (RBA) was identical for all receptors. […]
as §1, §2

[3] = target: T3, Androgen receptor of rat's prostate (Rattus norvegicus, UniProt P15207); test: Relative bond affinity, androgen receptor of rat's prostate (tritiated testosterone displacement); format: binding; conditions: testosterone = 100
T3 construct: The prostates were removed, weighed and homogenized at 0° C; from tissue; host or cells: prostate cytosol (105,000 g supernatant) of castrated male rats
T3 sequence (P15207 1-902): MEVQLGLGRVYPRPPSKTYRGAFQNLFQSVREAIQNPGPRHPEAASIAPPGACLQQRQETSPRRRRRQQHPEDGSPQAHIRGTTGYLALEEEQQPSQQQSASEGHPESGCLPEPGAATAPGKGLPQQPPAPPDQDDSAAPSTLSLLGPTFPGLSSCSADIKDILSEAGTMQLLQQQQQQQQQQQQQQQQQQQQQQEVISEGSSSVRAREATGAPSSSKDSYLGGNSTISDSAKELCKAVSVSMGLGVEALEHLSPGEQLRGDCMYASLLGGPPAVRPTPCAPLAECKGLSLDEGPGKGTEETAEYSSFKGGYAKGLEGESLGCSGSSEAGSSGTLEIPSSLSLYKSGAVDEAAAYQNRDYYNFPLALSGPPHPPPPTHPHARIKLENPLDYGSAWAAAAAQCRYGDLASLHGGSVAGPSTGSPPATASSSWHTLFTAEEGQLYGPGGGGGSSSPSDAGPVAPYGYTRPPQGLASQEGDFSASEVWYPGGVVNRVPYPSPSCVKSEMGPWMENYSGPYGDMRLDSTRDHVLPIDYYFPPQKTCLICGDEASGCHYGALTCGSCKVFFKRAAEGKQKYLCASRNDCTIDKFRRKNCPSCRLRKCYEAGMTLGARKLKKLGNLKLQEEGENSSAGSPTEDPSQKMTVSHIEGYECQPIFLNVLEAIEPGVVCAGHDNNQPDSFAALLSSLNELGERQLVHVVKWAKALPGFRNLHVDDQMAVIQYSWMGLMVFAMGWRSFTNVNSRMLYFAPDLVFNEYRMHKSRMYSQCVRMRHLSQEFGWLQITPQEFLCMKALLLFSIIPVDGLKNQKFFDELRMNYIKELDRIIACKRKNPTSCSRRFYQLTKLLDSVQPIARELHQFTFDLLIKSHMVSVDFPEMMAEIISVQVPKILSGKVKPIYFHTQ
Procedure: Male rats weighing of 160 to 200 g were castrated and 24 hours after the castration, the animals were killed. The prostates were removed, weighed and homogenized at 0° C. using a Potter Teflon-flask in a (TSDPM) 10 mM Tris, 0.25 M saccharose, 0.1 mM phenyl methane sulfonyl fluoride, 20 mM molybdate, 2mM dithiothreitol, HCl pH 7.4 buffer (1 g of tissue per 5 ml of TSDPM). The homogenate was ultracentrifuged at 105,000 g×60 mn at 0° C. and aliquots of the supernatant or "cytosol" were incubated at 0° C. with a constant concentration of tritiated testosterone in the presence of increasing concentrations (0-1000 nM) of cold testosterone or of the product under test. […]
as §3, §1, §2

rat thymocytes = test: Anti-glucocorticoid activity vis-a-vis dexamethasone: incorporation of uridine in rat thymocytes; format: cell-based
Description: Glucocorticoids cause an inhibition of the incorporation of nucleosides in lymphoid tissue and the measurement of the incorporation of radio-active uridine in the thymocytes in the presence of a product under test allows its glucocorticoid activity to be evaluated.
In accordance with the technique described by Dausse et al (3), the thymus of a suprarenalectomized rat weighing 160 to 180 g was removed, shredded and homogenized slowly using a teflon-flask homogenizer in Hanks solution. The cellular suspension was filtered on gauze, then centrifuged at 800 g×10 mn. A new centrifugation was carried out at 800 g×10 mm and the deposit was suspended in a nutritive medium (M.E.M. Gibco). The cellular concentration was adjusted to approximately 20×10^6 cells per ml and aliquots of 250 μl were incubated under carbogen for 3 hours at 37° C. with 5×10^-8 M of dexamethasone in the presence or not of increasing concentrations of product (10^-8 to 10^-6 M). 0.1 uCi of tritiated uridine was added to each incubate and the incubation was continued for one hour. The incubates were cooled and 1 ml of a cold solution of trichloroacetic acid (TCA) at 5% weight/volume was added. […] The radioactivity retained on the filters (representing the tritiated uridine incorporated in the thymocytes) was measured using a liquid scintillation spectrometer.

CC#C[C@]1(O)CC[C@H]2[C@@H]3CCC4=CC(=O)CCC4=C3[C@@H](c3ccc(N(C)CC(=O)O)cc3)C[C@@]21C [Example 1, Sodium salt of [[4-[17α-(1-propynyl)-Δ^4,9-estradien-17β-ol-3-one-11 β-yl]-phenyl]-methylamino]-acetic acid]
relative bond affinity (RBA) Progesterone 2H ([1]; incubation 2 hours at 0° C.): 22 | relative bond affinity (RBA) Progesterone 24H ([1]; incubation 24 hours at 0° C.): 107 | relative bond affinity (RBA) Glucocorticoid 4H ([2]; incubation 4 hours at 0° C.): 101 | relative bond affinity (RBA) Glucocorticoid 24H ([2]; incubation 24 hours at 0° C.): 129 | relative bond affinity (RBA) Androgen ([3]; incubation (so in the source) at 0° C.): 10,1 | relative bond affinity (RBA) Androgen 0,5H ([3]; incubation half an hour at 0° C.): 2,1 | anti-glucocorticoid activity (statement in words) (rat thymocytes): good anti-glucocorticoid activity
